# Key:
# [1] = tested on: Rhino mice; assay: Epidermal thickness of Rhino mice after 3 weeks of daily topical administration (histological analysis); format: in vivo, mouse; conditions: for API-Treated Epidermal Thickness (% Vehicle): 70% ethanol/30% propylene glycol, mean ± SEM
# Procedure: Methods. Animals and dose administration. Rhino mice 6-8 weeks old were dosed daily via the topical route. The mice were weighed three times per week. Doses of API were adjusted weekly based on body weight. The topical formulations dosage forms were made by mixing the API with two different topical carriers. One topical carrier consisted of 70 vol % propylene glycol and 30 vol % ethanol. The other topical carrier consisted of 30 vol % propylene glycol and 70 vol % ethanol. The topical vehicle control for a given comparative example was the vehicle carrier used in the API-formulated topical dosage form. Animals were euthanized 72 hours after administration of the final topical dose, and dorsal skin was collected for histological analysis.
# Measurement of epidermal thickness.
# Epidermal thickness was determined by histological analysis of tissue sections. Skin was fixed overnight in 4% paraformaldehyde at 4° C. with gentle agitation. The skin was dehydrated the following day in 100% methanol. Samples were embedded in paraffin. Nine sections, each measuring 10 μm and each separated by 150 μm, were taken from each mouse and stained with hematoxylin and eosin stain. Five of the nine sections were digitally imaged (6× magnification) for analysis of the epidermal thickness using Metamorph Imaging Software (single line function).
# The thickness of the epidermis adjacent to each comedone (open or healed) on each respective image of the five sections was also then measured using a Wacom Intuos 3 Graphics Tablet interfaced with the software. The average width was determined for each Rhino mouse from multiple measurements. Individual epidermal thickness average was determined from a composite of measurements taken from all 5 images. Such average for each mouse was used to calculate the treatment group mean. Results in the figures are expressed in terms of mean±standard error of the mean.
# Preparation of topical formulations and dosage forms containing the various API's including 2MBis P, CAGE-3, 24R-2MD2, VitIII (17-20E), NEL, VD-03, 2MPregna, 2MP, 20R-2MBisP, 2MTrisP, FF-44, FF-55, HPBS and 13Me2. Separate concentrated ethanolic stock solutions of each API were diluted to a predetermined dose concentration using a topical carrier vehicle. Two different carrier vehicles were used. One topical carrier consisted of 70 vol % propylene glycol and 30 vol % ethanol. The other topical carrier consisted of 30 vol % propylene glycol and 70 vol % ethanol. The vehicle was thoroughly mixed with the API. The topical dosing formulation and dosage form delivered a predetermined amount of API on a per kilogram body weight basis.
# A 100 μL dose was administered to the back of the mouse. An average weight of 24-30 g/mouse was assumed initially in the dose volume calculations. Dosing volumes were adjusted weekly to deliver the predetermined desired dose amount of API based on the body weight of each animal.
# [2] = tested on: keratinocytes in culture; conditions: cited from earlier work
# [3] = tested on: hairless C3H mouse; conditions: topical administration to skin of hairless C3H mouse; cited from earlier work
# [4] = 217 nmole/kgBW/day topical, 3 weeks, 70 vol. % ethanol/30 vol. % propylene glycol
# [5] = topical API dose 217 nmol/kg daily, 3 weeks
# [6] = 694 nmole/kgBW/day topical, 3 weeks, 70 vol. % ethanol/30 vol. % propylene glycol
# [7] = topical API dose 694 nmol/kg daily, 3 weeks
compound,measurement,setting,value
"C=C1[C@H](O)CC(=C/C=C2\CCC[C@]3(C)C([C@H](C)/C=C/[C@@H](C)C(C)(C)O)CC[C@@H]23)C[C@H]1O (stereo partly drawn) [(24R)2MD2, 2-methylene-19-nor-(24R)-1α,25-dihydroxyvitamin D2]",epidermal thickness as compared to the vehicle control (in words),"[1]; 2.33 nmole/kgBW/day topical, 3 weeks, 70 vol. % ethanol/30 vol. % propylene glycol",significant increase in epidermal thickness
same,API-Treated Epidermal Thickness (% Vehicle),"[1]; topical API dose 2.3 nmol/kg daily, 3 weeks",189 ± 13 % Vehicle
"C=C1[C@H](O)CC(=C/C=C2\CCC[C@]3(C)[C@@H]([C@H](C)CCC[C@H](C)O)CC[C@@H]23)C[C@H]1O [NEL, 2-methylene-(20R,25S)-19,26-dinor-1α,25-dihydroxyvitamin D3]","epidermal thickness, dose dependence (in words)","[1]; 7.5 and 25 nmole/kgBW/day topical, 3 weeks, 70 vol. % ethanol/30 vol. % propylene glycol",dose-dependent increase in epidermal thickness
same,API-Treated Epidermal Thickness (% Vehicle),"[1]; topical API dose 7.5 nmol/kg daily, 3 weeks",145 ± 4 % Vehicle
same,API-Treated Epidermal Thickness (% Vehicle),"[1]; topical API dose 25 nmol/kg daily, 3 weeks",189 ± 11 % Vehicle
"C=C1[C@H](O)CC(=C/C=C2\CCC[C@]3(C)C(CC)CCC23)C[C@H]1O (stereo partly drawn) [2MPregna, 2-methylene-19-nor-1α-hydroxy-pregnacalciferol]",epidermal thickness as compared to the vehicle control (in words),[1]; [4],significant increase in epidermal thickness
same,API-Treated Epidermal Thickness (% Vehicle),[1]; [5],183 ± 8 % Vehicle
"C=C1[C@H](O)CC(=C/C=C2\CCC[C@]3(C)[C@@H]([C@@H](C)CC)CC[C@@H]23)C[C@H]1O [2MBisP, 2-methylene-19-nor-20(S)-1α-hydroxy-bishomopregnacalciferol]",epidermal thickness as compared to the vehicle control (in words),[1]; [4],significant increase in epidermal thickness
same,epidermal thickness as compared to the vehicle control (in words),[1]; [6],significant increase in epidermal thickness
same,potency at increasing epidermal thickness relative to 20R-2MBisP,"[1]; doses of 217 and 694 nmole/kgBW/day topical, 3 weeks",approximately one-half log more potent
same,API-Treated Epidermal Thickness (% Vehicle),[1]; [5],220 ± 8 % Vehicle
same,API-Treated Epidermal Thickness (% Vehicle),[1]; [7],231 ± 6 % Vehicle
"C=C1[C@H](O)CC(=C/C=C/CC(C)(C)C[C@@H](C)CCCC(C)(C)O)C[C@H]1O [13Me2, 13,13-dimethyl-des-C,D analog of (20S)-2-methylene-1α,25-dihydroxy-19-nor-vitamin D3]",epidermal thickness as compared to the vehicle control (in words),[1]; [4],significant increase in epidermal thickness
same,API-Treated Epidermal Thickness (% Vehicle),[1]; [5],229 ± 12 % Vehicle
"C=C1C(O)CC(=CC=C2CCCC3(C)C2CCC3C(C)C)CC1O (stereo not drawn) [2MP, 1α-hydroxy-2-methylene-19-nor-homopregnacalciferol]",epidermal thickness as compared to the vehicle control (in words),[1]; [4],significant increase in epidermal thickness
same,API-Treated Epidermal Thickness (% Vehicle),[1]; [5],207 ± 8 % Vehicle
"C=C1[C@H](O)CC(=C/C=C2\CCC[C@]3(C)[C@@H]([C@H](C)CC)CC[C@@H]23)C[C@H]1O [20R-2MBisP, (20R)-1α-hydroxy-2-methylene-19-nor-bishomopregnacalciferol]",epidermal thickness as compared to the vehicle control (in words),[1]; [4],some increase in epidermal thickness
same,epidermal thickness as compared to the vehicle control (in words),[1]; [6],significant increase in epidermal thickness
same,API-Treated Epidermal Thickness (% Vehicle),[1]; [5],155 ± 7 % Vehicle
same,API-Treated Epidermal Thickness (% Vehicle),[1]; [7],209 ± 13 % Vehicle
"C=C1[C@H](O)CC(=C/C=C2\CCC[C@@H]3[C@@H]([C@@H](C)CCCC(C)(C)O)CC[C@@H]23)C[C@H]1O [VD-03, 2-methylene-18,19-dinor-(20S)-1α,25-dihydroxyvitamin D3]",API-Treated Epidermal Thickness (% Vehicle),"[1]; topical API dose 0.62 nmol/kg daily, 3 weeks",225 ± 6 % Vehicle
"C=C1[C@H](O)CC(=C/C=C2\CCC[C@]3(C)[C@@H]([C@@H](C)CCC)CC[C@@H]23)C[C@H]1O [2MTrisP, 2-methylene-(20S)-19-nor-1α-hydroxy-trishomopregnacalciferol]",epidermal thickness as compared to the vehicle control (in words),[1]; [4],significant increase in epidermal thickness
same,API-Treated Epidermal Thickness (% Vehicle),[1]; [5],221 ± 15 % Vehicle
"C=C1[C@H](O)CC(=C/C=C2\CCC[C@]3(C)[C@@H]([C@@H](C)CCCC4(O)CCCC4)CC[C@@H]23)C[C@H]1O [CAGE-3, 19-nor-26,27-dimethylene-20(S)-2-methylene-1α,25-dihydroxyvitamin D3]",epidermal thickness as compared to the vehicle control (in words),"[1]; 0.9 ng/day (ca. 100 picomole/kgBW/day), 0.45 ng/day from day 10, 0.22 ng/day (25 picomole/kgBW/day) from day 19, vehicle 30 vol. % ethanol/70 vol. % propylene glycol",increase in epidermal thickness
same,epidermal thickness compared to the vehicle control (in words),"[1]; lowest dose 0.0079 nmol/kgBW daily topical, 3 weeks, 70 vol. % ethanol/30 vol. % propylene glycol",some increase in epidermal thickness
same,epidermal thickness as compared to the control vehicle (in words),"[1]; three higher doses 0.025, 0.079 and 0.25 nmol/kgBW daily topical, 3 weeks, 70 vol. % ethanol/30 vol. % propylene glycol",significant increase in epidermal thickness
same,API-Treated Epidermal Thickness (% Vehicle),"[1]; topical API dose 0.025 nmol/kg daily, 3 weeks",162 ± 11 % Vehicle
same,API-Treated Epidermal Thickness (% Vehicle),"[1]; topical API dose 0.079 nmol/kg daily, 3 weeks",274 ± 14 % Vehicle
same,API-Treated Epidermal Thickness (% Vehicle),"[1]; topical API dose 0.25 nmol/kg daily, 3 weeks",293 ± 8 % Vehicle
"C=C1[C@H](O)CC(=C/C=C2\CCC[C@]3(C)/C(=C(\C)CCCC(C)(C)O)CC[C@@H]23)C[C@H]1O [Vit-III 17-20E, 2-methylene-1α,25-dihydroxy-(17E)-17(20)-dehydro-19-nor-vitamin D3]",epidermal thickness as compared to the vehicle control (in words),"[1]; 24.1 nmole/kgBW/day topical, 3 weeks, 70 vol. % ethanol/30 vol. % propylene glycol",significant increase in epidermal thickness
same,API-Treated Epidermal Thickness (% Vehicle),"[1]; topical API dose 24 nmol/kg daily, 3 weeks",216 ± 13 % Vehicle
"CC(C)C[C@H](C)[C@H]1CC[C@H]2/C(=C/C=C3C[C@@H](O)C(=CCCO)[C@H](O)C3)CCC[C@]12C [HPBS, 2-(3′hydroxypropyl-1′,2′-idene)-19,23,24-trinor-(20S)-1α-hydroxyvitamin D3]",epidermal thickness as compared to the control vehicle (in words),"[1]; 217 nmole/kgBW/day for 3 days (2 mice) or 10 days (4 mice), then 122 nmole/kgBW/day, 3 weeks daily topical, 70 vol. % ethanol/30 vol. % propylene glycol",significant increase in epidermal thickness
same,API-Treated Epidermal Thickness (% Vehicle),"[1]; topical API dose 217 to 122 nmol/kg daily (dose changed on day 10), 3 weeks",189 ± 13 % Vehicle
"C=C1[C@H](O)CC(=C/C=C2\CCC[C@@]3(C)C2CCC3[C@@H](C)CC(F)F)C[C@H]1O (stereo partly drawn) [FF-55, 2-methylene-(20S)-23,23-difluoro-1α-hydroxy-19-nor-bishomopregnancalciferol]",epidermal thickness as compared to the vehicle control (in words),[1]; [4],significant increase in epidermal thickness
same,API-Treated Epidermal Thickness (% Vehicle),[1]; [5],225 ± 9 % Vehicle
"C=C1/C(=C\C=C2/CCC[C@]3(C)[C@@H]([C@H](C)CCCC(C)(C)O)CC[C@@H]23)C[C@@H](O)C[C@@H]1O [1,25(OH)2D3, 1α,25-dihydroxy-vitamin D3]",epidermal thickness as compared to the vehicle-only control (in words),"[1]; 6 nmole/kgBW daily topical, 3 weeks, 70 vol. % ethanol/30 vol. % propylene glycol",very modest increase in epidermal thickness
same,API-Treated Epidermal Thickness (% Vehicle),"[1]; topical API dose 6.0 nmol/kg daily, 3 weeks",118 ± 7 % Vehicle
same,proliferation of keratinocytes,[2],inhibit the proliferation
same,epidermal proliferation,[3],induce epidermal proliferation
same,epidermal thickness,[3],increase epidermal thickness
"C=C1[C@H](O)CC(=C/C=C2\CCC[C@@]3(C)C2CCC3[C@H](C)CC(F)F)C[C@H]1O (stereo partly drawn) [FF-44, 2-methylene-(20R)-23,23-difluoro-1α-hydroxy-19-nor-bishomopregnacalciferol]",epidermal thickness as compared to the vehicle control (in words),[1]; [4],significant increase in epidermal thickness
same,API-Treated Epidermal Thickness (% Vehicle),[1]; [5],206 ± 22 % Vehicle

# From patent publication US8143238B2, “Methods of increasing epidermal skin thickness by topical administration of a 19-nor containing vitamin D compound” (Wisconsin Alumni Research Foundation, priority 2008, dated 2012)
